In one assay the target is T1, human GcgR (Homo sapiens, UniProt P47871).
T1 construct: expressed in transfected cells; crude membranes
The assay is described as follows: [125I]-Glucagon binding, SPA with WGA beads, 0.1% bacitracin. The note with it: geometric mean, read-out: hGcgR Ki. A digest of the protocol: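 SPA competition binding with WGA beads on crude membranes from HEK293 cells stably expressing hGcgR. Buffer: 25 mM HEPES pH 7.4, 2.5 mM CaCl2, 1 mM MgCl2, 0.1% bacitracin, 0.003% Tween-20; 10-point 3-fold dilutions, NSB with 1 μM Gcg.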

In the next assay the target is T2, human GIPR (Homo sapiens, UniProt P48546).
T2 construct: expressed in transfected cells; crude membranes
T2 sequence (P48546 22-466): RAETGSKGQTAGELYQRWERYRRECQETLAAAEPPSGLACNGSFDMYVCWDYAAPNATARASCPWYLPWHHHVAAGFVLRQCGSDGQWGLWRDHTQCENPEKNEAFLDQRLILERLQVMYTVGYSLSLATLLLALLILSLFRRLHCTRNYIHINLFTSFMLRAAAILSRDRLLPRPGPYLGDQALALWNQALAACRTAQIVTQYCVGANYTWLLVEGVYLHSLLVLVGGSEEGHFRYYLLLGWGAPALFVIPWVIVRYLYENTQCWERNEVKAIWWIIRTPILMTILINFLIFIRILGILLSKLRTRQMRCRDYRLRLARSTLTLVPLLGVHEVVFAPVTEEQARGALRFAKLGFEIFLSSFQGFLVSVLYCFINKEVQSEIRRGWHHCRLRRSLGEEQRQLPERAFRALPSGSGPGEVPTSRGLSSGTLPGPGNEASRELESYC
In words: [125I]-GIP binding, SPA with WGA beads, 0.1% bacitracin. The note with it: geometric mean, read-out: hGIPR Ki. A digest of the protocol:
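Ki values are geometric means (SEM, n independent days), derived from four-parameter nonlinear regression of IC50. Membranes came from hGIPR-expressing CHO cells.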

The next assay deals with T3, human GLP-1R (Homo sapiens, UniProt P43220).
T3 construct: expressed in transfected cells; crude membranes
In words: [125I]-GLP-1 binding, SPA with WGA beads, 0.1% bacitracin. The note with it: geometric mean, read-out: hGLP1R Ki. A digest of the protocol: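 Binding buffer was 25 mM HEPES pH 7.4 with 2.5 mM CaCl2, 1 mM MgCl2, 0.1% (w/v) bacitracin, 0.003% Tween-20 and EDTA-free protease inhibitors. Four-parameter regression gave IC50, converted to Ki (geometric mean, SEM, n independent days).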

*1 amine or outer side, *2 acyl side, *3 side chain or, on linkers, in order; H or OH if unused. Where a SMILES comes first, the peptide text is derived from it. Side-chain parts run from the residue outwards. [ ]: non-standard residue; d: D form. The star is where a group is joined. C20 diacid = O=C(O)CCCCCCCCCCCCCCCCCCC(=O)*; C18 diacid = O=C(O)CCCCCCCCCCCCCCCCC(=O)*; αMePhe(2-F) = C[C@](N)(Cc1ccccc1F)C(=O)O; γGlu = O=C(O)[C@H](CCC(=O)[*:2])N[*:1]; 4Pal = N[C@@H](Cc1ccncc1)C(=O)O; αMeL = CC(C)C[C@](C)(N)C(=O)O; Orn = NCCC[C@H](N)C(=O)O; AEEA = NCCOCCOCC(=O)O; Aib = CC(C)(N)C(=O)O

T3 sequence (P43220 24-463): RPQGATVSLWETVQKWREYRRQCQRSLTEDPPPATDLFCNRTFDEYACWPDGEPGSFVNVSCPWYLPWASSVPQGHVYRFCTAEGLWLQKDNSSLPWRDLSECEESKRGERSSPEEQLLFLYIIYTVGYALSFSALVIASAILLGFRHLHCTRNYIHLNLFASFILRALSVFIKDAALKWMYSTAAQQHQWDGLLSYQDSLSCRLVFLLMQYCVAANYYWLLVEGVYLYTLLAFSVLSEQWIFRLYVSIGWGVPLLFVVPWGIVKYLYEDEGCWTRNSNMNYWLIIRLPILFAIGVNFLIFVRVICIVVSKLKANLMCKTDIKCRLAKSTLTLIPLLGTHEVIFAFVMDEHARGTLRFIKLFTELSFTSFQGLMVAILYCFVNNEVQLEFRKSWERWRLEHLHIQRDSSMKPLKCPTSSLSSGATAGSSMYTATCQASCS
T1 sequence (P47871 26-477): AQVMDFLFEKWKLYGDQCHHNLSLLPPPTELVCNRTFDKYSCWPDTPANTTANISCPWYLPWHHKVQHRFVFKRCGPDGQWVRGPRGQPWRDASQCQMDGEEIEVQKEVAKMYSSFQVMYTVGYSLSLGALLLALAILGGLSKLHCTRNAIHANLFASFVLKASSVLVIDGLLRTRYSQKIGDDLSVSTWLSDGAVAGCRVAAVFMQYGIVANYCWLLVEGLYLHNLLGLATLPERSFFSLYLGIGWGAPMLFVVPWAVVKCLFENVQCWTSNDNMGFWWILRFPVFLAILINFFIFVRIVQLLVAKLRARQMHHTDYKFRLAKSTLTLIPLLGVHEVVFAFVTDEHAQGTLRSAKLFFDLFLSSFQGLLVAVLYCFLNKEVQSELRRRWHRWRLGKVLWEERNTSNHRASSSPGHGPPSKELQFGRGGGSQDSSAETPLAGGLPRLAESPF

As usually defined, the Ki is a measure of affinity in units of concentration, obtained from inhibition or displacement. Turning to `CC[C@H](C)[C@H](NC(=O)[C@H](CO)NC(=O)[C@H](Cc1ccc(O)cc1)NC(=O)[C@H](CC(=O)O)NC(=O)[C@H](CO)NC(=O)[C@@H](NC(=O)[C@H](Cc1ccccc1)NC(=O)[C@@H](NC(=O)CNC(=O)[C@H](CCC(=O)O)NC(=O)[C@@H](C)NC(=O)[C@@H](N)Cc1ccc(O)cc1)[C@@H](C)O)[C@@H](C)CC)C(=O)N[C@@H](CC(C)C)C(=O)N[C@@H](CC(C)C)C(=O)N[C@@H](CC(=O)O)C(=O)N[C@@H](CCCCN)C(=O)N[C@@H](CCCCNC(=O)COCCOCCNC(=O)COCCOCCNC(=O)CC[C@H](NC(=O)CCCCCCCCCCCCCCCCCCC(=O)O)C(=O)O)C(=O)N[C@@H](Cc1c[nH]cn1)C(=O)N[C@@H](CCC(N)=O)C(=O)N[C@@H](CCC(N)=O)C(=O)N[C@@H](CC(=O)O)C(=O)N[C@@H](Cc1ccccc1)C(=O)N[C@H](C(=O)N[C@@H](CC(N)=O)C(=O)N[C@@H](Cc1ccc(O)cc1)C(=O)N[C@@H](CC(C)C)C(=O)N[C@@H](CC(C)C)C(=O)N[C@@H](C)C(=O)N[C@@H](CCC(N)=O)C(=O)NCC(=O)N1CCC[C@H]1C(=O)N[C@@H](CO)C(=O)N[C@@H](CO)C(=O)NCC(=O)N[C@@H](C)C(=O)N1CCC[C@H]1C(=O)N1CCC[C@H]1C(=O)N1CCC[C@H]1C(=O)N[C@@H](CO)C(N)=O)C(C)C` [Example 15] (H-Y[dA]EGTFISDYSILLDKK([AEEA-AEEA-γGlu-C20 diacid])HQQDFVNYLLAQGPSSGAPPPS-NH2), the Ki is over 254 nM on human GcgR, 0.471 nM at human GIPR and over 236 nM at human GLP-1R.
Turning to `CC[C@H](C)[C@H](NC(=O)[C@H](CO)NC(=O)[C@H](Cc1ccc(O)cc1)NC(=O)[C@H](CC(=O)O)NC(=O)[C@H](CO)NC(=O)[C@@H](NC(=O)[C@](C)(Cc1ccccc1F)NC(=O)[C@@H](NC(=O)CNC(=O)[C@H](CCC(=O)O)NC(=O)C(C)(C)NC(=O)[C@@H](N)Cc1ccc(O)cc1)[C@@H](C)O)[C@@H](C)CC)C(=O)N[C@@H](C)C(=O)N[C@@H](CC(C)C)C(=O)N[C@@H](CC(=O)O)C(=O)N[C@@H](CCCCN)C(=O)N[C@H](C(=O)N[C@@H](Cc1c[nH]cn1)C(=O)N[C@@H](CCC(N)=O)C(=O)NC(C)(C)C(=O)N[C@@H](CC(=O)O)C(=O)N[C@@H](Cc1ccccc1)C(=O)N[C@H](C(=O)N[C@@H](CCC(=O)O)C(=O)N[C@@H](Cc1ccncc1)C(=O)N[C@@H](CCCCNC(=O)COCCOCCNC(=O)COCCOCCNC(=O)CC[C@H](NC(=O)CCCCCCCCCCCCCCCCCCC(=O)O)C(=O)O)C(=O)N[C@@H](CC(C)C)C(=O)N[C@@H](CCC(=O)O)C(=O)N[C@@H](CCC(N)=O)C(=O)NCC(=O)N1CCC[C@H]1C(=O)N[C@@H](CO)C(=O)N[C@@H](CO)C(=O)NCC(=O)N[C@@H](C)C(=O)N1CCC[C@H]1C(=O)N1CCC[C@H]1C(=O)N1CCC[C@H]1C(=O)N[C@@H](CO)C(N)=O)C(C)C)[C@@H](C)CC` [Example 114] (H-Y[Aib]EGT[αMePhe(2-F)]ISDYSIALDKIHQ[Aib]DFVE[4Pal]K([AEEA-AEEA-γGlu-C20 diacid])LEQGPSSGAPPPS-NH2), the Ki at human GcgR is over 971 nM; on human GIPR, 0.121 nM; at human GLP-1R, over 921 nM.
Turning to `CC[C@H](C)[C@H](NC(=O)[C@H](CO)NC(=O)[C@H](Cc1ccc(O)cc1)NC(=O)[C@H](CC(=O)O)NC(=O)[C@H](CO)NC(=O)[C@@H](NC(=O)[C@H](Cc1ccccc1)NC(=O)[C@@H](NC(=O)CNC(=O)[C@H](CCC(=O)O)NC(=O)[C@@H](C)NC(=O)[C@@H](N)Cc1ccc(O)cc1)[C@@H](C)O)[C@@H](C)CC)C(=O)N[C@@H](CC(C)C)C(=O)N[C@@H](CC(C)C)C(=O)N[C@@H](CC(=O)O)C(=O)N[C@@H](CCCCN)C(=O)N[C@@H](CCCCNC(=O)COCCOCCNC(=O)COCCOCCNC(=O)CC[C@H](NC(=O)CCCCCCCCCCCCCCCCC(=O)O)C(=O)O)C(=O)N[C@@H](C)C(=O)N[C@@H](CCC(N)=O)C(=O)NC(C)(C)C(=O)N[C@@H](CCC(=O)O)C(=O)N[C@@H](Cc1ccccc1)C(=O)N[C@H](C(=O)N[C@@H](CCC(N)=O)C(=O)N[C@@H](Cc1c[nH]c2ccccc12)C(=O)N[C@@H](CC(C)C)C(=O)N[C@@H](CC(C)C)C(=O)N[C@@H](C)C(=O)NCC(=O)NCC(=O)N1CCC[C@H]1C(=O)N[C@@H](CO)C(=O)N[C@@H](CO)C(=O)NCC(=O)N[C@@H](C)C(=O)N1CCC[C@H]1C(=O)N1CCC[C@H]1C(=O)N1CCC[C@H]1C(=O)N[C@@H](CO)C(N)=O)C(C)C` [Example 27] (H-Y[dA]EGTFISDYSILLDKK([AEEA-AEEA-γGlu-C18 diacid])AQ[Aib]EFVQWLLAGGPSSGAPPPS-NH2), the Ki on human GcgR came to 401 nM; on human GIPR, 0.0354 nM; at human GLP-1R, 23.2 nM.
Turning to `CC[C@H](C)[C@H](NC(=O)[C@H](Cc1ccccc1)NC(=O)[C@@H](NC(=O)CNC(=O)[C@H](CCC(=O)O)NC(=O)C(C)(C)NC(=O)[C@@H](N)Cc1ccc(O)cc1)[C@@H](C)O)C(=O)N[C@@H](CO)C(=O)N[C@@H](CC(=O)O)C(=O)N[C@@H](Cc1ccc(O)cc1)C(=O)N[C@@H](CO)C(=O)N[C@H](C(=O)N[C@@](C)(CC(C)C)C(=O)N[C@@H](CC(C)C)C(=O)N[C@@H](CC(=O)O)C(=O)N[C@@H](CCCN)C(=O)N[C@@H](CCCCNC(=O)COCCOCCNC(=O)COCCOCCNC(=O)CC[C@H](NC(=O)CCCCCCCCCCCCCCCCCCC(=O)O)C(=O)O)C(=O)N[C@@H](Cc1c[nH]cn1)C(=O)N[C@@H](CCC(N)=O)C(=O)NC(C)(C)C(=O)N[C@@H](CC(=O)O)C(=O)N[C@@H](Cc1ccccc1)C(=O)N[C@H](C(=O)N[C@@H](CCC(=O)O)C(=O)N[C@@H](Cc1ccncc1)C(=O)N[C@@H](CC(C)C)C(=O)N[C@@H](CC(C)C)C(=O)N[C@@H](CCC(=O)O)C(=O)N[C@H](C(=O)NCC(=O)N1CCC[C@H]1C(=O)N[C@@H](CO)C(=O)N[C@@H](CO)C(=O)NCC(=O)N[C@@H](C)C(=O)N1CCC[C@H]1C(=O)N1CCC[C@H]1C(=O)N1CCC[C@H]1C(=O)N[C@@H](CO)C(N)=O)[C@@H](C)O)C(C)C)[C@@H](C)CC` [Example 80] (H-Y[Aib]EGTFISDYSI[αMeL]LD[Orn]K([AEEA-AEEA-γGlu-C20 diacid])HQ[Aib]DFVE[4Pal]LLETGPSSGAPPPS-NH2), the figures for the Ki at human GcgR, at human GIPR and at human GLP-1R were over 958 nM, 0.0828 nM and over 906 nM, respectively.
Take `CC[C@H](C)[C@H](NC(=O)[C@H](CO)NC(=O)[C@H](Cc1ccc(O)cc1)NC(=O)[C@H](CC(=O)O)NC(=O)[C@H](CO)NC(=O)[C@@H](NC(=O)[C@](C)(Cc1ccccc1F)NC(=O)[C@@H](NC(=O)CNC(=O)[C@H](CCC(=O)O)NC(=O)C(C)(C)NC(=O)[C@@H](N)Cc1ccc(O)cc1)[C@@H](C)O)[C@@H](C)CC)C(=O)N[C@@H](C)C(=O)N[C@@H](CC(C)C)C(=O)N[C@@H](CC(=O)O)C(=O)N[C@@H](CCCCN)C(=O)N[C@H](C(=O)N[C@@H](Cc1c[nH]cn1)C(=O)N[C@@H](CCC(N)=O)C(=O)NC(C)(C)C(=O)N[C@@H](CCC(=O)O)C(=O)N[C@@H](Cc1ccccc1)C(=O)N[C@H](C(=O)N[C@@H](CC(N)=O)C(=O)N[C@@H](Cc1ccc(O)cc1)C(=O)N[C@@H](CCCCNC(=O)COCCOCCNC(=O)COCCOCCNC(=O)CC[C@H](NC(=O)CCCCCCCCCCCCCCCCCCC(=O)O)C(=O)O)C(=O)N[C@@H](CC(C)C)C(=O)N[C@@H](CCC(=O)O)C(=O)NCC(=O)NCC(=O)N1CCC[C@H]1C(=O)N[C@@H](CO)C(=O)N[C@@H](CO)C(=O)NCC(=O)N[C@@H](C)C(=O)N1CCC[C@H]1C(=O)N1CCC[C@H]1C(=O)N1CCC[C@H]1C(=O)N[C@@H](CO)C(N)=O)C(C)C)[C@@H](C)CC` [Example 95] (H-Y[Aib]EGT[αMePhe(2-F)]ISDYSIALDKIHQ[Aib]EFVNYK([AEEA-AEEA-γGlu-C20 diacid])LEGGPSSGAPPPS-NH2): the results for the Ki at human GcgR, at human GIPR and at human GLP-1R were 85 nM, 0.0255 nM and 832 nM, respectively.
For `CC[C@H](C)[C@H](NC(=O)[C@H](CO)NC(=O)[C@H](Cc1ccc(O)cc1)NC(=O)[C@H](CC(=O)O)NC(=O)[C@H](CO)NC(=O)[C@@H](NC(=O)[C@H](Cc1ccccc1)NC(=O)[C@@H](NC(=O)CNC(=O)[C@H](CCC(=O)O)NC(=O)C(C)(C)NC(=O)[C@@H](N)Cc1ccc(O)cc1)[C@@H](C)O)[C@@H](C)CC)C(=O)N[C@@H](C)C(=O)N[C@@H](CC(C)C)C(=O)N[C@@H](CC(=O)O)C(=O)N[C@@H](CCCCN)C(=O)N[C@H](C(=O)N[C@@H](Cc1c[nH]cn1)C(=O)N[C@@H](CCC(N)=O)C(=O)NC(C)(C)C(=O)N[C@@H](CCC(=O)O)C(=O)N[C@@H](Cc1ccccc1)C(=O)N[C@H](C(=O)N[C@@H](CC(N)=O)C(=O)N[C@@H](Cc1ccc(O)cc1)C(=O)N[C@@H](CCCCNC(=O)COCCOCCNC(=O)COCCOCCNC(=O)CC[C@H](NC(=O)CCCCCCCCCCCCCCCCCCC(=O)O)C(=O)O)C(=O)N[C@@H](CC(C)C)C(=O)N[C@@H](C)C(=O)NCC(=O)NCC(=O)N1CCC[C@H]1C(=O)N[C@@H](CO)C(=O)N[C@@H](CO)C(=O)NCC(=O)N[C@@H](C)C(=O)N1CCC[C@H]1C(=O)N1CCC[C@H]1C(=O)N1CCC[C@H]1C(=O)N[C@@H](CO)C(N)=O)C(C)C)[C@@H](C)CC` [Example 96] (H-Y[Aib]EGTFISDYSIALDKIHQ[Aib]EFVNYK([AEEA-AEEA-γGlu-C20 diacid])LAGGPSSGAPPPS-NH2), the values for the inhibition constant (Ki) at human GcgR, at human GIPR and on human GLP-1R were over 960 nM, 0.232 nM and over 908 nM, respectively.

Source of the values: patent US12723063B2, “GIPR-agonist compounds” (Eli Lilly and Company, priority 2019, dated 2026).
